Results from patent publication US10202421B2, “Tumor-targeting compounds” (SKU Asset Management GmbH, priority 2009, dated 2019).
No end group written: not given here. *: point of attachment. For = O=C*

Key:
human EGFR/Erb-B1 = target: T1, human EGFR/Erb-B1 (Homo sapiens, UniProt P00533); assay: Fluorescence spectroscopy binding/displacement test with NBD-labelled 12mer tracer and EGFR
T1 construct: purchased

granulocytes = assay: Chemotaxis assay (trans-well assay for macrophage mobilization); assay type: cell-based
Excerpt: Concentration-dependent granulocyte activation of N-formyl peptide conjugates has been compared with activation of the peptide only. Each series of experiments has been repeated 3 times with 200,000 granulocytes each. […] Therefore, variations in the formyl peptide amino acid composition, e.g. different amino acid residues at position 3 (phenylalanine, proline) as in structure 1 and structure 2, provide a further means to tune the immune response.

Solubility at pH 7 = assay type: physicochemical
Excerpt: (§1) The peptide SEQ ID NO 1, […] showing specific binding activity to the tumor marker Erb-B1/EGFR was chosen as binder and the macrophage-activating peptide formyl-MLP as effector to synthesize structure 1. The structure was synthesized chemically by standard methods known in the art and purified by ion exchange chromatography. Chemical identity was verified by mass spectrometry.

[1] = Size exclusion chromatography and dynamic light scattering analysis; assay type: physicochemical; details: size exclusion chromatography, dynamic light scattering
Excerpt: as §1

CC[C@H](C)[C@H](NC(=O)[C@@H](NC(=O)[C@H](CC(N)=O)NC(=O)[C@H](CCC(N)=O)NC(=O)[C@@H]1CCCN1C(=O)[C@@H](NC(=O)[C@H](Cc1ccc(O)cc1)NC(=O)CNC(=O)[C@H](Cc1ccc(O)cc1)NC(=O)[C@H](Cc1c[nH]c2ccccc12)NC(=O)[C@H](Cc1c[nH]cn1)NC(=O)[C@@H](N)Cc1ccc(O)cc1)[C@@H](C)O)C(C)C)C(=O)NCCOCCOCCOCCOCCOCCOCCOCCOCCOCCOCCOCCOCCOCCOCCOCCOCCOCCOCCOCCOCCOCCOCCOCCOCCOCCOCCOCCOCCC(=O)NCCCC[C@H](NC(=O)[C@H](CCCCNC(=O)CCOCCOCCOCCOCCOCCOCCOCCOCCOCCOCCOCCOCCOCCOCCOCCOCCOCCOCCOCCOCCOCCOCCOCCOCCOCCOCCOCCOCCNC(=O)[C@@H](NC(=O)[C@@H](NC(=O)[C@H](CC(N)=O)NC(=O)[C@H](CCC(N)=O)NC(=O)[C@@H]1CCCN1C(=O)[C@@H](NC(=O)[C@H](Cc1ccc(O)cc1)NC(=O)CNC(=O)[C@H](Cc1ccc(O)cc1)NC(=O)[C@H](Cc1c[nH]c2ccccc12)NC(=O)[C@H](Cc1c[nH]cn1)NC(=O)[C@@H](N)Cc1ccc(O)cc1)[C@@H](C)O)C(C)C)[C@@H](C)CC)NC(=O)[C@@H]1CCCN1C(=O)[C@H](CC(C)C)NC(=O)[C@H](CCSC)NC=O)C(=O)O [structure 1]
displacement of fluorescent tracer peptide from EGFR complex (human EGFR/Erb-B1; 1 µM EGFR/NBD-12mer complex titrated with increasing concentrations (FIG. 5d)): displacement of the fluorescent tracer | KD value for the interaction with EGFR (human EGFR/Erb-B1; displacement of fluorescently labelled 12mer from EGFR complex, estimated): low nM range | macrophage activation profile (granulocytes; trans-well assay): demonstrated | solubility (Solubility at pH 7): ≤ 10000 µg/mL | oligomers or large aggregates [1]: no oligomers or large aggregates

N-formyl-Met-Leu-Phe (For-Met-Leu-Phe) [fMLF]
stimulation of granulocyte chemotaxis (granulocytes; separate experiment): can be stimulated | chemotactic response compared to fMLP (granulocytes; separate experiment, granulocytes): slightly higher

N-formyl-Met-Leu-Pro (For-Met-Leu-Pro) [fMLP]
stimulation of granulocyte chemotaxis (granulocytes; separate experiment): can be stimulated

YHWYGYTPQNVI [unlabelled peptide, reference compound]
displacement of fluorescent tracer peptide from EGFR complex (fluorescence intensity) (human EGFR/Erb-B1; EGFR-tracer complex 50 nM, PBS pH 7.5, 10 fold excess of unlabelled peptide (FIG. 5c)): decrease in fluorescence intensity
